{"source": "the supplement of paper PMC10307832", "assay_in_all_cases": "relative viability (nuclei count vs DMSO), 5 days (fraction); higher = more cells survive", "key": {"EMC-BAC-2": {"test_system": "EMC-BAC-2", "how_it_was_run": "(§1)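 Relative viability divides the nuclei count in treated wells by that in vehicle wells. Lung cancer cell lines were seeded in 1536-well plates, dosed by pin tool the next day, and fixed and stained after 5 days in one step with final 0.05% Triton X-100, 1% formaldehyde and 1 ug/ml Hoechst. Dosing was a single drug or a fixed anchor-drug dose plus five library-drug doses (not always all listed) in √10 steps, and values are medians of duplicate plates imaged at 4×.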"}, "EPLC-272H": {"test_system": "EPLC-272H", "how_it_was_run": "as §1"}, "H3255": {"test_system": "H3255", "how_it_was_run": "as §1"}, "HOP-62": {"test_system": "HOP-62", "how_it_was_run": "as §1"}, "LCLC-97TM1": {"test_system": "LCLC-97TM1", "how_it_was_run": "as §1"}, "LXF-289": {"test_system": "LXF-289", "how_it_was_run": "as §1"}, "NCI-H1563": {"test_system": "NCI-H1563", "how_it_was_run": "as §1"}, "NCI-H1915": {"test_system": "NCI-H1915", "how_it_was_run": "as §1"}, "NCI-H1993": {"test_system": "NCI-H1993", "how_it_was_run": "as §1"}, "NCI-H2009": {"test_system": "NCI-H2009", "how_it_was_run": "as §1"}, "NCI-H2023": {"test_system": "NCI-H2023", "how_it_was_run": "as §1"}}, "data": [{"smiles": "C=C1C(=O)O[C@@H](CCCCCCCC)[C@@H]1C(=O)O", "note": "[C-75] + C[C@]1(O)C[C@@H](c2nc(-c3ccc4ccc(-c5ccccc5)nc4c3)c3c(N)nccn32)C1 [Linsitinib] (partner 1 µM)", "values": [{"measurement": "relative viability", "setting": "EMC-BAC-2; first compound 0.08 µM", "value": 0.791}, {"measurement": "relative viability", "setting": "EMC-BAC-2; first compound 0.253 µM", "value": 0.754}, {"measurement": "relative viability", "setting": "EMC-BAC-2; first compound 0.8 µM", "value": 0.831}, {"measurement": "relative viability", "setting": "EMC-BAC-2; first compound 2.53 µM", "value": 0.761}, {"measurement": "relative viability", "setting": "EMC-BAC-2; first compound 8 µM", "value": 0.831}, {"measurement": "relative viability", "setting": "EPLC-272H; first compound 0.08 µM", "value": 1.05}, {"measurement": "relative viability", "setting": "EPLC-272H; first compound 0.253 µM", "value": 1.23}, {"measurement": "relative viability", "setting": "EPLC-272H; first compound 0.8 µM", "value": 1.07}, {"measurement": "relative viability", "setting": "EPLC-272H; first compound 2.53 µM", "value": 0.976}, {"measurement": "relative viability", "setting": "EPLC-272H; first compound 8 µM", "value": 1.11}, {"measurement": "relative viability", "setting": "H3255; first compound 0.08 µM", "value": 0.868}, {"measurement": "relative viability", "setting": "H3255; first compound 0.253 µM", "value": 1.13}, {"measurement": "relative viability", "setting": "H3255; first compound 0.8 µM", "value": 1.01}, {"measurement": "relative viability", "setting": "H3255; first compound 2.53 µM", "value": 0.895}, {"measurement": "relative viability", "setting": "H3255; first compound 8 µM", "value": 1.16}, {"measurement": "relative viability", "setting": "HOP-62; first compound 0.08 µM", "value": 0.944}, {"measurement": "relative viability", "setting": "HOP-62; first compound 0.253 µM", "value": 0.894}, {"measurement": "relative viability", "setting": "HOP-62; first compound 0.8 µM", "value": 0.841}, {"measurement": "relative viability", "setting": "HOP-62; first compound 2.53 µM", "value": 0.843}, {"measurement": "relative viability", "setting": "HOP-62; first compound 8 µM", "value": 0.875}, {"measurement": "relative viability", "setting": "LCLC-97TM1; first compound 0.08 µM", "value": 0.2}, {"measurement": "relative viability", "setting": "LCLC-97TM1; first compound 0.253 µM", "value": 0.309}, {"measurement": "relative viability", "setting": "LCLC-97TM1; first compound 0.8 µM", "value": 0.177}, {"measurement": "relative viability", "setting": "LCLC-97TM1; first compound 2.53 µM", "value": 0.105}, {"measurement": "relative viability", "setting": "LCLC-97TM1; first compound 8 µM", "value": 0.18}, {"measurement": "relative viability", "setting": "LXF-289; first compound 0.08 µM", "value": 0.925}, {"measurement": "relative viability", "setting": "LXF-289; first compound 0.253 µM", "value": 0.979}, {"measurement": "relative viability", "setting": "LXF-289; first compound 0.8 µM", "value": 0.953}, {"measurement": "relative viability", "setting": "LXF-289; first compound 2.53 µM", "value": 0.94}, {"measurement": "relative viability", "setting": "LXF-289; first compound 8 µM", "value": 0.966}, {"measurement": "relative viability", "setting": "NCI-H1563; first compound 0.08 µM", "value": 1.24}, {"measurement": "relative viability", "setting": "NCI-H1563; first compound 0.253 µM", "value": 1.23}, {"measurement": "relative viability", "setting": "NCI-H1563; first compound 0.8 µM", "value": 1.14}, {"measurement": "relative viability", "setting": "NCI-H1563; first compound 2.53 µM", "value": 1.28}, {"measurement": "relative viability", "setting": "NCI-H1563; first compound 8 µM", "value": 1.18}, {"measurement": "relative viability", "setting": "NCI-H1915; first compound 0.08 µM", "value": 1.2}, {"measurement": "relative viability", "setting": "NCI-H1915; first compound 0.253 µM", "value": 1.17}, {"measurement": "relative viability", "setting": "NCI-H1915; first compound 0.8 µM", "value": 0.993}, {"measurement": "relative viability", "setting": "NCI-H1915; first compound 2.53 µM", "value": 1.05}, {"measurement": "relative viability", "setting": "NCI-H1915; first compound 8 µM", "value": 1.07}, {"measurement": "relative viability", "setting": "NCI-H1993; first compound 0.08 µM", "value": 0.705}, {"measurement": "relative viability", "setting": "NCI-H1993; first compound 0.253 µM", "value": 0.773}, {"measurement": "relative viability", "setting": "NCI-H1993; first compound 0.8 µM", "value": 0.751}, {"measurement": "relative viability", "setting": "NCI-H1993; first compound 2.53 µM", "value": 0.744}, {"measurement": "relative viability", "setting": "NCI-H1993; first compound 8 µM", "value": 0.763}, {"measurement": "relative viability", "setting": "NCI-H2009; first compound 0.08 µM", "value": 1.19}, {"measurement": "relative viability", "setting": "NCI-H2009; first compound 0.253 µM", "value": 1.09}, {"measurement": "relative viability", "setting": "NCI-H2009; first compound 0.8 µM", "value": 1.11}, {"measurement": "relative viability", "setting": "NCI-H2009; first compound 2.53 µM", "value": 1.02}, {"measurement": "relative viability", "setting": "NCI-H2009; first compound 8 µM", "value": 0.997}, {"measurement": "relative viability", "setting": "NCI-H2023; first compound 0.08 µM", "value": 0.701}, {"measurement": "relative viability", "setting": "NCI-H2023; first compound 0.253 µM", "value": 0.824}]}]}
